Source: patent publication US20260226020A1, “Nav 1.7 AND/OR Nav 1.8 BLOCKING HYDRAZIDES, PROCESSES FOR THE PREPARATION THEREOF, COMPOSITIONS, USES, METHODS OF TREATMENT USING SAME AND KITS” (Eurofarma Laboratórios S.A., priority 2023, published 2026)
pIC50: −log10 of the molar value.

Columns and labels:
[1] = target: T1, human sodium channels Nav 1.8 (Homo sapiens, UniProt Q9Y5Y9); assay: Automated whole-cell voltage-clamp (ScreenPatch 384P) sodium current block in CHO cells expressing Nav 1.8; type: cell-based; conditions: CHO cells stably expressing human Nav 1.8; whole cell patch clamp, inactivation step -40 mV 8 s, test step 10 mV (TP1A), room temperature; mean where tested in two or more assays; read-out: Nav1.8 IC50
T1 construct: expressed in transfected cells
T1 sequence (Q9Y5Y9 whole entry): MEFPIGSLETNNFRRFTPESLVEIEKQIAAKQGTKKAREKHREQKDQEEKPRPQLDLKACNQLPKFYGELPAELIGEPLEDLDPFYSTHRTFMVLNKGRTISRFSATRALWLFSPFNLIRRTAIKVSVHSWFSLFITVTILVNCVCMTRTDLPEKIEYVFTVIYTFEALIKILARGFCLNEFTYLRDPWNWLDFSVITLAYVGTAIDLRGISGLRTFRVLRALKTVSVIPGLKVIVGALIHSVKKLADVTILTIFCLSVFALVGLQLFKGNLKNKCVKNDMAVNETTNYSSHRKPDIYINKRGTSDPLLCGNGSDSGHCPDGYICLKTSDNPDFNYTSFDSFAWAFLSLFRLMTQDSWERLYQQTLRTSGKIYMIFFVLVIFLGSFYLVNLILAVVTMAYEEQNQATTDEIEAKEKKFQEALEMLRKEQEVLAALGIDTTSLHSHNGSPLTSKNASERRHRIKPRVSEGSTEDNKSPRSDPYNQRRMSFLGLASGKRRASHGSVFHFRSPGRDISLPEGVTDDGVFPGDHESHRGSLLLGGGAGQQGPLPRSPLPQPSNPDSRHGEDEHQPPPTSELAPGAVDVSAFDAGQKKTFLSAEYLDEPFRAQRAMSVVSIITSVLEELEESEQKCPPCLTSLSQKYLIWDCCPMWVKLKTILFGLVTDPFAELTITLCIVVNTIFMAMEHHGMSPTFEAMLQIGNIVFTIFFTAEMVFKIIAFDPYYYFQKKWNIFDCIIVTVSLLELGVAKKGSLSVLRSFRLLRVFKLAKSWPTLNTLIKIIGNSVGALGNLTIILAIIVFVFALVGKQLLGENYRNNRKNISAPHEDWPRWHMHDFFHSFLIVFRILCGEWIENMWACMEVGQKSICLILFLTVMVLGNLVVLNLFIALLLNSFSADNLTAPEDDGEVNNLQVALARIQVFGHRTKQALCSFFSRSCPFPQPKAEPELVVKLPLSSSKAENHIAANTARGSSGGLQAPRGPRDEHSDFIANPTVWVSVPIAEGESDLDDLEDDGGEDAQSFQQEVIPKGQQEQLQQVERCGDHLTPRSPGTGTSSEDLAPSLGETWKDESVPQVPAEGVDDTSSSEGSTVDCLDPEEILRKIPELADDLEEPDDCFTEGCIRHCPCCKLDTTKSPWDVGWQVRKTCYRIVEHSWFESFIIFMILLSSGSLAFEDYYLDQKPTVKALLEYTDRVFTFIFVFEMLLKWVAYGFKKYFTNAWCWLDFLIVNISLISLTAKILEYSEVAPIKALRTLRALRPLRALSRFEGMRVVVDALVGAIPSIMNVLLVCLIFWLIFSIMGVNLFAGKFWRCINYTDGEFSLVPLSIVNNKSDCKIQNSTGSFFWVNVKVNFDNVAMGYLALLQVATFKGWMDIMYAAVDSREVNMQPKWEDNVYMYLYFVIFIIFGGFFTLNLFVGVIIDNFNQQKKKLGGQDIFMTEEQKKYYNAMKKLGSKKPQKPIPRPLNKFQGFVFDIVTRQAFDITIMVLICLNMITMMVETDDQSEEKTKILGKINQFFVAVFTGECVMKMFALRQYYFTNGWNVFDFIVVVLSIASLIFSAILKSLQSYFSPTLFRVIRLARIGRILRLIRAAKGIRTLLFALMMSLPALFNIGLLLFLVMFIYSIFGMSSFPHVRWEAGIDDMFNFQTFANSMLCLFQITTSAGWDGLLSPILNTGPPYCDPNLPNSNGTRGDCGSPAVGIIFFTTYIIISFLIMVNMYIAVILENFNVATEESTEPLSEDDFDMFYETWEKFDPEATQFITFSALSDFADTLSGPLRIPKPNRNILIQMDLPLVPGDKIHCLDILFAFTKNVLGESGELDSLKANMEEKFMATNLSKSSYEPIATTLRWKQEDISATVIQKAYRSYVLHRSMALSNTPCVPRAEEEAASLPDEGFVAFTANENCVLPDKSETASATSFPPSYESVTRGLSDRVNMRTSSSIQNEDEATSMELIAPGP
Protocol: (§1) Biological assays were performed on Chinese hamster ovary (CHO) cells that express human sodium channels Nav 1.8 or Nav 1.7 in a stable manner.
(§2) The experimental protocol voltage-clamp using the whole cell configuration was established on the automated ScreenPatch© 384P platform (SP384PE, Nanion Technologies, Livingston, NJ) and the results were recorded with a Nanion 384-well Patch Clamp chip (NPC) (Nanion Technologies, Livingston, NJ).
(§3) Formula I compounds were diluted in eight concentrations in the extracellular solution composed of saline saline solution, buffered with HEPES (mM): NaCl, 137; KCl, 4; CaCl2, 3.8; MgCl2, 1; HEPES, 10; Glucose, 10; pH 7.4. The […], 50; CsF, 90; MgCl2, 5; EGTA, 5; HEPES, 10; pH 7.2. The duration of exposure of each compound with cells expressing Nav 1.7 or Nav 1.8 was at least five minutes, and the assays were performed at room temperature.
(§4) The measurements of the sodium currents of Nav 1.8 and Nav 1.7 were obtained using the voltage protocol described below.
(§5) A holding voltage of −100 mV was established followed by an inactivation voltage step at −40 mV for 8 seconds, followed by a step of −100 mV for 20 ms, followed by a 20 ms step for 10 mV for Nav 1.8 or 0 mV for Nav 1.7 (TP1A) before returning to the holding voltage of −100 mV.
(§6) The protocol was repeated at a frequency of 0.05 Hz and the amplitude of the current was quantified throughout the recording of the TP1A phase. The variation in the amplitude of the peak current was evaluated according to the formula described below, after exposing the cells expressing the channels to each concentration of the different compounds:
(§7) wherein ITP1A,basal and ITP1A,molecule represent the peaks of sodium current input into TP1A before exposure to the compound and in the presence of the compound, respectively.
(§8) The decrease in the amplitude of the peak current, after the exposure of the cells to the compounds, was used to calculate the percentage of relative blockage of the channels in relation to the positive control according to the formula below: […]
(§9) wherein % V and % CP represent the means of the values of current inhibition with a vehicle (DMSO) and positive controls, respectively. The sodium currents of the positive control were considered as 100%.
(§10) wherein [Test] represents the concentration of the molecule evaluated, CI50 is the concentration of the compound that generates half of the maximum inhibition, N is the Hill coefficient, and % Block′ is the percentage of sodium channel current (Nav 1.8 and Nav 1.7) blocked at each concentration of the molecule evaluated. Data were obtained by nonlinear regression (nonlinear least squares) with XLfit for Excel (Microsoft, Redmond, WA).
(§11) The compounds were tested in at least one assay to obtain the value of CI50. For compounds that were tested in two or more assays, the results are described as the means of the CI50 values.

[2] = target: T2, human sodium channels Nav 1.7 (Homo sapiens, UniProt Q15858); assay: Automated whole-cell voltage-clamp (ScreenPatch 384P) sodium current block in CHO cells expressing Nav 1.7; type: cell-based; conditions: CHO cells stably expressing human Nav 1.7; whole cell patch clamp, inactivation step -40 mV 8 s, test step 0 mV (TP1A), room temperature; mean where tested in two or more assays; read-out: Nav1.7 IC50
T2 construct: expressed in transfected cells
T2 sequence (Q15858 whole entry): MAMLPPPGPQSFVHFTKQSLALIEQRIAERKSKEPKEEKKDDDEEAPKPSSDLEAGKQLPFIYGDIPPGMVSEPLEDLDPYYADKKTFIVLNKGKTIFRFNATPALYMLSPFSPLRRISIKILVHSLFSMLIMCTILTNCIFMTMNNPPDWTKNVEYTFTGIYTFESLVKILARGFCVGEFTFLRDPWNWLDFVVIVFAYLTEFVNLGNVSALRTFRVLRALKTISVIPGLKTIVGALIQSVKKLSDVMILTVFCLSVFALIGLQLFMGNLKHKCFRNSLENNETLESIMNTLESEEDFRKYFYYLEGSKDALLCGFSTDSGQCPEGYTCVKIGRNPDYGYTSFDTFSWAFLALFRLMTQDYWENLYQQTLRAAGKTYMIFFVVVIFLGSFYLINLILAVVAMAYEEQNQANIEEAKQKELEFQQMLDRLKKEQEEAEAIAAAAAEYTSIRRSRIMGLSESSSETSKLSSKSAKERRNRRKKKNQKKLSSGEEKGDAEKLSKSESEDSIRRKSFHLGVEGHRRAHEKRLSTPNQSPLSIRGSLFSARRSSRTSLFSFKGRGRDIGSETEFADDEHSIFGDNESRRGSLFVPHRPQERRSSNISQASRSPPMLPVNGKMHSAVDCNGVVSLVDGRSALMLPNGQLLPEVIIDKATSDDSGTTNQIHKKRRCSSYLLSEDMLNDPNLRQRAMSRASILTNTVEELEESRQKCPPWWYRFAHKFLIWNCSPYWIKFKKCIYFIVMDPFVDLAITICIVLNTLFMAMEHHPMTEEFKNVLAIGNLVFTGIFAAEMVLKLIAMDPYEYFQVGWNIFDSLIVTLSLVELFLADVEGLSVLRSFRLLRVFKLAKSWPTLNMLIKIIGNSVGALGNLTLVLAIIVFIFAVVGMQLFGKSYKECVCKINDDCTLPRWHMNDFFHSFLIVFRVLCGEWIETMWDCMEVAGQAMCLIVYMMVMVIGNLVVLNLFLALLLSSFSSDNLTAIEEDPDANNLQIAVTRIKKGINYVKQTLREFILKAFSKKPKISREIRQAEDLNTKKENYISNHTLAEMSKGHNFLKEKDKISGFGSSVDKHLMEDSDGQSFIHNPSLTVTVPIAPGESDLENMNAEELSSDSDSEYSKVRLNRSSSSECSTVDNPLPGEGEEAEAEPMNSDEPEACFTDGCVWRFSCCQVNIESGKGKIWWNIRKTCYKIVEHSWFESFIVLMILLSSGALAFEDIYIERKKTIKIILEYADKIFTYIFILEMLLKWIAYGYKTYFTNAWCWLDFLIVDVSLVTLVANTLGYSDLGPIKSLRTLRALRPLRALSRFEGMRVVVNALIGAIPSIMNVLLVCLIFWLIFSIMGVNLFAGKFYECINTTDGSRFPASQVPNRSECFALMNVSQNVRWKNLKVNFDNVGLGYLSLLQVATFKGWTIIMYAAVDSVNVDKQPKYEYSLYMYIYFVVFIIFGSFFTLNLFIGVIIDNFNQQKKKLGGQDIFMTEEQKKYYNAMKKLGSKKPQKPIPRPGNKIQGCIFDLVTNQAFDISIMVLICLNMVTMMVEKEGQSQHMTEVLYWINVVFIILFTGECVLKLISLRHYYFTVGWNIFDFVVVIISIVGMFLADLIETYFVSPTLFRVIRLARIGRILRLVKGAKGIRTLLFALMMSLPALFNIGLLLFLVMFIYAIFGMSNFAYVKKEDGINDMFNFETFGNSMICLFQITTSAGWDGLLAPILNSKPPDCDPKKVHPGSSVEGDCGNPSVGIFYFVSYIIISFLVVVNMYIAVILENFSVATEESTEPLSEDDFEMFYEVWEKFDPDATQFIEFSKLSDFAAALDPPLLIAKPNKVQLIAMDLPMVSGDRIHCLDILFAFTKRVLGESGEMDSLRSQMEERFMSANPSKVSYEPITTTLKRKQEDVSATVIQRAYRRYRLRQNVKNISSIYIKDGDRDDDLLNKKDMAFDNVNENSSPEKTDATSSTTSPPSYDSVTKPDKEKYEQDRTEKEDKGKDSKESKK
Protocol: as §1, §2, §3, §4, §5, §6, §7, §8, §9, §10, §11

Row | Structure (SMILES) | pIC50 [1] | pIC50 [2]
1 | CCOc1ccc(-c2cccc(C(=O)NNCc3ccccc3F)n2)cc1 [Compound 50, 6-(4-ethoxyphenyl)-N′-(2-fluorobenzyl)picolinohydrazide] | < 6.00 | < 6.00
2 | CCOc1ccc(-c2cncc(C(=O)NNCc3cccc(OC)c3)n2)cc1 [Compound 16, 6-(4-ethoxyphenyl)-N′-(3-methoxybenzyl)pyrazine-2-carbohydrazide] | > 6.30 | < 6.00
3 | CCOc1ccc(-c2cncc(C(=O)NNCc3cc(OC)cnc3C)n2)cc1 [Compound 18, 6-(4-ethoxyphenyl)-N′-((5-methoxy-2-methylpyridin-3-yl)methyl)pyrazine-2-carbohydrazide] | > 6.30 | < 6.00
4 | CCOc1ccc(-c2cncc(C(=O)NNCc3cccc(OC)c3)n2)cn1 [Compound 30, 6-(6-ethoxypyridin-3-yl)-N′-(3-methoxybenzyl)pyrazine-2-carbohydrazide] | > 6.30 | < 6.00
5 | COc1cc(CNNC(=O)c2cncc(-c3ccc(OC(F)F)cc3)n2)cc(OC)c1 [Compound 7, 6-(4-(difluoromethoxy)phenyl)-N′-(3,5-dimethoxybenzyl)pyrazine-2-carbohydrazide] | 6.00 to 6.30 | < 6.00
6 | CCOc1cc(C)c(-c2cncc(C(=O)NNCc3cc(OC)cc(OC)c3)n2)cn1 [Compound 40, N′-(3,5-dimethoxybenzyl)-6-(6-ethoxy-4-methylpyridin-3-yl)pyrazine-2-carbohydrazide] | < 6.00 | < 6.00
7 | COc1ccc(-c2cncc(C(=O)NNCc3ccc(Cl)cc3)n2)cc1 [Compound 2, N′-(4-chlorobenzyl)-6-(4-methoxyphenyl)pyrazine-2-carbohydrazide] | < 6.00 | < 6.00
8 | CCOc1ccc(-c2ccnc(C(=O)NNCc3ccccc3F)c2)cc1 [Compound 48, 4-(4-ethoxyphenyl)-N′-(2-fluorobenzyl)picolinohydrazide] | < 6.00 | < 6.00
9 | CCOc1ccc(-c2cncc(C(=O)NN3CCCc4ccc(OC)cc4C3)n2)cc1 [Compound 11, 6-(4-ethoxyphenyl)-N-(8-methoxy-1,3,4,5-tetrahydro-2H-benzo[c]azepin-2-yl)pyrazine-2-carboxamide] | < 6.00 | < 6.00
10 | CCOc1ccc(-c2cncc(C(=O)NNCc3cc(OC)cc(OC)c3)n2)c(F)c1 [Compound 27, N′-(3,5-dimethoxybenzyl)-6-(4-ethoxy-2-fluorophenyl)pyrazine-2-carbohydrazide] | > 6.30 | < 6.00
